Laboratory results reported in patent US20240041042A1, “1-(PYRIDYL)-5-AZINYLPYRAZOLE DERIVATIVES, AND THEIR USE FOR CONTROL OF UNDESIRED PLANT GROWTH” (Bayer Aktiengesellschaft, priority 2020, published 2024).
Where two headings read alike, the source gives them in different places.

Experiments:
Type in all cases: in vivo
[1] = tested on: Digitaria sanguinalis (DIGSA); test: Post-emergence herbicidal action against DIGSA; settings: visual rating about 3 weeks after treatment
Outline: (§1)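 Values are percent visual activity (0% like control, 100% plants dead) after about 3 weeks in the greenhouse. Treatment: post-emergence spray at one-leaf stage, 600 l/ha spray volume, 0.5% additive, doses 320 g/ha or lower.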

Lolium rigidum (LOLRI) = test: Post-emergence herbicidal action against LOLRI
Outline: as §1

[2] = tested on: Verconica persica (VERPE); test: Post-emergence herbicidal action against VERPE
Outline: as §1

Zea mays (ZEAMX) = settings: for Post-emergence action against ZEAMX in % (crop plant compatibility): 20 g/ha, effect in comparison to untreated controls; for Post-emergence action against ZEAMX in %: crop plant compatibility, effect vs untreated controls
Outline: (§2)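 Greenhouse crops in sandy loam sprayed post-emergence at the one-leaf stage, 2–3 weeks after sowing, with WP or EC formulations in water plus 0.5% additive at 600 l/ha. Damage rated visually about 3 weeks later versus untreated controls (0% = like control, 100% = dead); suffixes a–c denote different doses.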

[3] = tested on: Triticum aestivum (TRZAS); settings: crop plant compatibility, effect vs untreated controls
Outline: as §2

Oryza sativa (ORYSA) = settings: crop plant compatibility
Outline: as §2

[4] = tested on: Alopecurus myosuroides (ALOMY); test: Post-emergence herbicidal action against ALOMY; settings: visual rating about 3 weeks after treatment vs untreated controls (100% = plants have died, 0% = like control plants)
Outline: as §1

[5] = tested on: Echinochloa crus-galli (ECHCG); test: Post-emergence herbicidal action against ECHCG
Outline: as §1

Setaria viridis (SETVI) = test: Post-emergence herbicidal action against SETVI
Outline: as §1

Avena fatua (AVEFA) = test: Post-emergence herbicidal action against AVEFA; settings: visual rating about 3 weeks after treatment
Outline: as §1

Viola tricolor (VIOTR) = test: Post-emergence herbicidal action against VIOTR
Outline: as §1

[6] = tested on: Matricaria inodora (MATIN); test: Post-emergence herbicidal action against MATIN
Outline: as §1

[7] = tested on: Amaranthus retroflexus (AMARE); test: Post-emergence herbicidal action against AMARE
Outline: as §1

[8] = tested on: Pharbitis purpurea (PHBPU); test: Post-emergence herbicidal action against PHBPU
Outline: as §1

[9] = tested on: Polygonum convolvulus (POLCO); test: Post-emergence herbicidal action against POLCO
Outline: as §1

[10] = tested on: Abutilon theophrasti (ABUTH); test: Post-emergence herbicidal action against ABUTH; settings: visual rating about 3 weeks after treatment vs untreated controls (100% = plants have died, 0% = like control plants)
Outline: as §1

[11] = 20 g/ha, effect vs untreated controls
[12] = 80 g/ha, effect in comparison to untreated controls
[13] = 320 g/ha, effect in comparison to untreated controls
[14] = 320 g/ha, visual rating about 3 weeks after treatment

Compound	Post-emergence action against DIGSA in % ([1]; 320 g/ha)	Post-emergence action against LOLRI in % (Lolium rigidum (LOLRI); dosage 80 g/ha)	Post-emergence action against LOLRI in % (Lolium rigidum (LOLRI); dosage 320 g/ha)	Post-emergence action against VERPE in % ([2]; 320 g/ha, VERPE)	Post-emergence action against VERPE in % ([2]; dosage 80 g/ha)	Post-emergence action against ZEAMX in % (crop plant compatibility) (Zea mays (ZEAMX))	Post-emergence action against TRZAS in % ([3]; 20 g/ha)	Post-emergence action against ORYSA in % (Oryza sativa (ORYSA); [11])	Post-emergence action against ORYSA in % (Oryza sativa (ORYSA); [12])	Post-emergence action against ALOMY in % ([4]; 320 g/ha)	Post-emergence action against ECHCG in % ([5]; dosage 320 g/ha)	Post-emergence action against SETVI in % (Setaria viridis (SETVI); dosage 320 g/ha)	Post-emergence action against AVEFA in % (Avena fatua (AVEFA); 320 g/ha)	Post-emergence action against VIOTR in % (Viola tricolor (VIOTR); 80 g/ha)	Post-emergence action against VIOTR in % (Viola tricolor (VIOTR); 320 g/ha)	Post-emergence action against MATIN in % ([6]; dosage 320 g/ha)	Post-emergence action against AMARE in % [7, 14]	Post-emergence action against PHBPU in % ([8]; dosage 320 g/ha)	Post-emergence action against POLCO in % ([9]; dosage 320 g/ha)	Post-emergence action against ZEAMX in % (Zea mays (ZEAMX); 80 g/ha)	also measured
COC(=O)[C@@H](C)Oc1nn(-c2ncccc2F)c(-c2ccnc(F)c2)c1Br [Example I-134]	80%	80%	90%	80%	80%	10%	20%	0%	10%	90%	80%	80%	–	–	–	–	–	–	–	–	–
Cc1ncccc1-n1nc(OCC(=O)O)c(Cl)c1-c1cncc(F)c1 [II-42]	80%	–	–	90%	80%	20%	0%	0%	0%	90%	90%	90%	90%	80%	90%	80%	90%	90%	80%	–	Post-emergence action against TRZAS in % ([3]; 80 g/ha): 20%; Post-emergence action against ORYSA in % (Oryza sativa (ORYSA); [13]): 0%; Post-emergence action against ALOMY in % ([4]; 80 g/ha): 80%
O=C(COc1nn(-c2ncccc2F)c(-c2ccc(F)nc2)c1C1CC1)OCC1CCCC1 [Example I-251]	90%	90%	90%	90%	80%	20%	10%	10%	–	80%	90%	90%	90%	–	90%	90%	90%	–	–	20%	Post-emergence action against DIGSA in % ([1]; 80 g/ha): 80%; Post-emergence action against ECHCG in % ([5]; dosage 80 g/ha): 80%
COC(=O)CCOC(=O)COc1nn(-c2ncccc2F)c(-c2ccc(F)nc2)c1C1CC1 [Example I-383]	90%	80%	90%	90%	80%	10%	20%	–	–	90%	90%	80%	80%	80%	90%	80%	80%	–	–	20%	Post-emergence action against DIGSA in % ([1]; 80 g/ha): 80%; Post-emergence action against AVEFA in % (Avena fatua (AVEFA); 80 g/ha): 80%; Post-emergence action against ECHCG in % ([5]; dosage 80 g/ha): 80%; Post-emergence action against SETVI in % (Setaria viridis (SETVI); dosage 80 g/ha): 80%
CCOC(=O)COc1nn(-c2ncccc2F)c(-c2ccnc(F)c2)c1Br [Example I-136]	80%	–	80%	–	–	10%	10%	10%	20%	90%	80%	90%	–	80%	80%	80%	–	90%	–	10%	Post-emergence action against ZEAMX in % (Zea mays (ZEAMX); 320 g/ha): 20%
O=C(O)COc1nn(-c2ncccc2F)c(-c2ccnc(F)c2)c1Br [Example I-139]	90%	–	–	90%	80%	0%	0%	0%	0%	90%	80%	–	–	80%	90%	–	90%	80%	90%	0%	Post-emergence action against ZEAMX in % (Zea mays (ZEAMX); 320 g/ha): 10%; Post-emergence action against ORYSA in % (Oryza sativa (ORYSA); [13]): 10%; Post-emergence action against AMARE in % ([7]; 80 g/ha, visual rating about 3 weeks after treatment vs untreated controls (100% = plants have died, 0% = like control plants)): 80%; Post-emergence action against ABUTH in % ([10]; 320 g/ha): 80%; Post-emergence action against ALOMY in % ([4]; 80 g/ha): 90%
O=C(O)COc1nn(-c2ccccn2)c(-c2ccc(F)nc2)c1Cl [Example I-266]	90%	–	90%	90%	80%	–	20%	20%	–	90%	90%	80%	–	80%	90%	90%	90%	90%	90%	–	Post-emergence action against MATIN in % ([6]; dosage 80 g/ha): 80%; Post-emergence action against PHBPU in % ([8]; dosage 80 g/ha): 80%; Post-emergence action against POLCO in % ([9]; dosage 80 g/ha): 80%; Post-emergence action against ECHCG in % ([5]; dosage 80 g/ha): 80%
O=C(COc1nn(-c2ncccc2F)c(-c2ccc(F)nc2)c1C1CC1)ON=C1CCCC1 [Example I-380]	90%	90%	90%	90%	80%	0%	20%	0%	10%	90%	90%	90%	90%	90%	90%	–	–	–	80%	20%	Post-emergence action against DIGSA in % ([1]; 80 g/ha): 80%; Post-emergence action against AVEFA in % (Avena fatua (AVEFA); 80 g/ha): 90%; Post-emergence action against ABUTH in % ([10]; 80 g/ha): 80%; Post-emergence action against ABUTH in % ([10]; 320 g/ha): 90%; Post-emergence action against ECHCG in % ([5]; dosage 80 g/ha): 80%; Post-emergence action against SETVI in % (Setaria viridis (SETVI); dosage 80 g/ha): 80%
C[C@@H](Oc1nn(-c2ncccc2F)c(-c2ccnc(F)c2)c1Br)C(=O)O [Example I-140]	80%	–	90%	90%	–	–	10%	0%	0%	100%	80%	–	90%	90%	90%	–	90%	–	90%	–	Post-emergence action against ORYSA in % (Oryza sativa (ORYSA); [13]): 10%; Post-emergence action against ABUTH in % ([10]; 320 g/ha): 80%
COC(=O)COc1nn(-c2cccnc2C)c(-c2cncc(F)c2)c1Cl [II-44]	80%	–	–	90%	80%	0%	20%	0%	0%	100%	90%	90%	–	80%	90%	–	90%	–	90%	0%	Post-emergence action against TRZAS in % ([3]; 80 g/ha): 20%; Post-emergence action against ABUTH in % ([10]; 320 g/ha): 80%
